Test results published in patent US6881841B2, “Dibenzosuberanyl piperazine derivatives and drug-resistance overcoming agents containing the derivatives” (priority 2000, dated 2005).

How the values were obtained:
[1] = test system: Chloroquine-resistant malaria plasmodium Plasmodium chabaudi (AS strain: chloroquine-resistant (3CQ)); assay: Test 1: resistance overcoming effect, in vivo test with chloroquine-resistant mouse malaria strain; conditions: ICR male mice, days 0-3, counted on 5th day; for number of PRBCs per 10,000 red blood cells, Chloroquine 0 mg: test compound 50 mg/kg i.p. + chloroquine 0 mg/kg i.p.; for number of PRBCs per 10,000 red blood cells, Chloroquine 2 mg: test compound 50 mg/kg i.p. + chloroquine 2 mg/kg i.p.; for number of PRBCs per 10,000 red blood cells, Chloroquine 2 mg / number of PRBCs per 10,000 red blood cells, Chloroquine 3 mg: Control = chloroquine only; for number of PRBCs per 10,000 red blood cells, Chloroquine 3 mg: test compound 50 mg/kg i.p. + chloroquine 3 mg/kg i.p.
Description: With respect to Compounds 1 to 7, these invention compounds were tested for their resistance overcoming effect in an in vivo test making use of a chloroquine-resistant mouse malaria strain. The test was conducted following the following procedure.
Chloroquine-resistant malaria plasmodium Plasmodlium chabaudi (AS strain: chloroquine-resistant (3CQ)); and
Mice: ICR male mice of 4-5 weeks old (20 to 25 g)
(§1) • 1) Preparation of the compounds: Each test compound was dissolved beforehand in 1/10 volume of DMSO such that the dose of the compound to each mouse per administration would become a final concentration of 50 mg/kg/0.2 mL. The resulting solution was diluted with 0.85% physiological saline to provide a 10% DMSO suspension. • 2) Inoculation with the chloroquine-resistant malaria plasmodium, Plasmodium chabaudi (AS strain: chloroquine-resistant (3CQ): Parasitized red blood cells (PRBCs) (5×10^6 (the 6th power of 10) cells/0.2 mL) were also prepared with 0.85% physiological saline, and inoculated through the caudal vein of each mouse with a 26×½-gauge tuberculin needle. • 3) Administration of the compounds and chloroquine: Two hours after the inoculation with the plasmodium, each test compound (50 mg/kg/0.2 mL) was intraperitoneally administered with 21×½-gauge needles to three groups of mice per compound. Chloroquine solutions of three concentrations, which had been prepared with 0.85% physiological saline to give final concentrations of 0 mg/kg/0.1 mL, 2 mg/kg/0.1 mL and 3 mg/kg/0.1 mL, respectively, were then also administered intraperitoneally with 26×½-gauge tuberculin needles to the three groups of mice which had been administered with the compound. To three control groups, the three chloroquine solutions were only administered, respectively. The compound and chloroquine were administered four times in total, that is, on the 0th, 1st, 2nd and 3rd days after the inoculation with the plasmodium. • 4) Determination of effect: Every day after the inoculation with the plasmodium, the tail of each mouse was cut to a minimum at the tip thereof with scissors to cause bleeding, and a Giemsa staining specimen smeared with a thin film of the blood was prepared. On the 5th day, the number of PRBCs per 10,000 red blood cells was counted, and based on a comparison of the PRBC number with the corresponding number of the group administered only with chloroquine, the chloroquine resistance overcoming effect of the test compound was determined.

[2] = test system: Chloroquine-resistant malaria plasmodium Plasmodium chabaudi (AS strain: chloroquine-resistant (3CQ)); assay: Test 2: resistance overcoming effect of Compound 8, as Test 1 but determined on the fourth day; assay type: in vivo; conditions: for number of PRBCs per 10,000 red blood cells, Chloroquine 2 mg: test compound 50 mg/kg i.p. + chloroquine 2 mg/kg i.p.; for number of PRBCs per 10,000 red blood cells, Chloroquine 2 mg / number of PRBCs per 10,000 red blood cells, Chloroquine 3 mg: Control = chloroquine only; for number of PRBCs per 10,000 red blood cells, Chloroquine 3 mg: test compound 50 mg/kg i.p. + chloroquine 3 mg/kg i.p.
Description: as §1
Resistance overcoming effect of Compound 8 was tested in a similar manner as in Test 1. The time of determination of the effect was set on the fourth day.

[3] = ICR male mice, days 0-3, determined on fourth day

Row | SMILES | number of PRBCs per 10,000 red blood cells, Chloroquine 0 mg [1] | number of PRBCs per 10,000 red blood cells, Chloroquine 2 mg [1] | number of PRBCs per 10,000 red blood cells, Chloroquine 3 mg [1] | melting point | number of PRBCs per 10,000 red blood cells, Chloroquine 2 mg [2, 3] | number of PRBCs per 10,000 red blood cells, Chloroquine 3 mg [2, 3] | number of PRBCs per 10,000 red blood cells, Chloroquine 0 mg ([2]; ICR male mice, test compound 50 mg/kg i.p. + chloroquine 0 mg/kg i.p., days 0-3, determined on fourth day) | chloroquine resistance overcoming effect (in words) ([2]; conclusion from Table 2)
1 | C=CCCCCC(O)CN1CCN(C2c3ccccc3CCc3ccccc32)CC1 (centres unmarked) [Compound 2, 1-Dibenzosuberanyl-4-(2-hydroxy-7-octenyl)-piperazine] | 8450 per 10,000 red blood cells | 0 per 10,000 red blood cells | 0 per 10,000 red blood cells |  |  |  |  | 
2 | C=CC(O)CN1CCN(C2c3ccccc3CCc3ccccc32)CC1 (centres unmarked) [Compound 4, 1-Dibenzosuberanyl-4-(2-hydroxy-3-butenyl)-piperazine] | 8000 per 10,000 red blood cells | 430 per 10,000 red blood cells | 0 per 10,000 red blood cells | 93 °C |  |  |  | 
3 | CCN(CC)CCCC(C)Nc1ccnc2cc(Cl)ccc12 (centres unmarked) [Control, chloroquine, reference compound] |  | 4900 per 10,000 red blood cells | 3750 per 10,000 red blood cells |  | 4525 per 10,000 red blood cells | 3600 per 10,000 red blood cells |  | 
4 | C=CCCC(O)CN1CCN(C2c3ccccc3CCc3ccccc32)CC1 (centres unmarked) [Compound 3, 1-Dibenzosuberanyl-4-(2-hydroxy-5-hexenyl)-piperazine] | 4500 per 10,000 red blood cells |  | 292 per 10,000 red blood cells |  |  |  |  | 
5 | C=CC(CO)N1CCN(C2c3ccccc3CCc3ccccc32)CC1 (centres unmarked) [Compound 5, 1-Dibenzosuberanyl-4-(1-hydroxybutan-3-en-2-yl)piperazine] |  |  | 0 per 10,000 red blood cells | 123 °C |  |  |  | 
6 | C=CCCCCCCC(O)CN1CCN(C2c3ccccc3CCc3ccccc32)CC1 (centres unmarked) [Compound 1, 1-Dibenzosuberanyl-4-(2-hydroxydecan-9-en-1-yl)piperazine] | 4250 per 10,000 red blood cells | 3100 per 10,000 red blood cells | 280 per 10,000 red blood cells |  |  |  |  | 
7 | CCCCCCCCC(O)CN1CCN(C2c3ccccc3CCc3ccccc32)CC1 (centres unmarked) [Compound 8, 1-Dibenzosuberanyl-4-(2-hydroxydecanyl)piperazine] |  |  |  |  | 4875 per 10,000 red blood cells | 3025 per 10,000 red blood cells | 7475 per 10,000 red blood cells | overcoming of chloroquine resistance
8 | OCC#CCN1CCN(C2c3ccccc3CCc3ccccc32)CC1 |  |  |  | 129 °C |  |  |  | 
